Laboratory results taken from BindingDB's records for doi:10.1021/jm9608523 (Merck Sharp & Dohme Research Laboratories, 1997).

These compounds were tested against Gastrin/cholecystokinin type B receptor (Cavia porcellus) (assay: Inhibition of ligand binding to Cholecystokinin type B receptor from guinea pig cortical membrane.).

Row | IC50 | Compound
1 | 0.012 µM | Cc1cccc(NC(=O)N[C@@H]2N=C([C@H]3CCC(C)(C)CCN3)c3ccccc3N(C)C2=O)c1 [1-[(R)-5-((R)-5,5-Dimethyl-azepan-2-yl)-1-methyl-2-oxo-2,3-dihydro-1H-benzo[e][1,4]diazepin-3-yl]-3-m-tolyl-urea]
2 | 0.041 µM | CCCN1C(=O)[C@H](NC(=O)Nc2cccc(C)c2)N=C([C@@H]2CCCCN2)c2ccccc21 [1-((R)-2-Oxo-5-(S)-piperidin-2-yl-1-propyl-2,3-dihydro-1H-benzo[e][1,4]diazepin-3-yl)-3-m-tolyl-urea]
3 | 0.0015 µM | CCCN1C(=O)[C@H](NC(=O)Nc2cccc(C)c2)N=C([C@H]2CC(C)(C)CCN2)c2ccccc21 [1-[(R)-5-((R)-4,4-Dimethyl-piperidin-2-yl)-2-oxo-1-propyl-2,3-dihydro-1H-benzo[e][1,4]diazepin-3-yl]-3-m-tolyl-urea]
4 | 0.026 µM | CCCN1C(=O)[C@H](NC(=O)Nc2cccc(C)c2)N=C([C@H]2CCC(C)(C)CCN2C)c2ccccc21 [1-[(R)-2-Oxo-1-propyl-5-((R)-1,5,5-trimethyl-azepan-2-yl)-2,3-dihydro-1H-benzo[e][1,4]diazepin-3-yl]-3-m-tolyl-urea]

More lines, now with the values behind:

Row | Compound | IC50
5 | CCN(CC)C(=O)CN1C(=O)[C@H](NC(=O)Nc2cccc(C)c2)N=C(c2cccc[n+]2C)c2ccccc21 [2-[(R)-1-Diethylcarbamoylmethyl-2-oxo-3-(3-m-tolyl-ureido)-2,3-dihydro-1H-benzo[e][1,4]diazepin-5-yl]-1-methyl-pyridinium; iodide] | 0.018 µM
6 | CCCN1C(=O)[C@H](NC(=O)Nc2cccc(C)c2)N=C([C@H]2CCCCN2)c2ccccc21 [1-((R)-2-Oxo-5-(R)-piperidin-2-yl-1-propyl-2,3-dihydro-1H-benzo[e][1,4]diazepin-3-yl)-3-m-tolyl-urea] | 0.036 µM
7 | CCCN1C(=O)[C@H](NC(=O)Nc2cccc(C)c2)N=C([C@H]2CCCCN2C)c2ccccc21 [1-[(R)-5-((R)-1-Methyl-piperidin-2-yl)-2-oxo-1-propyl-2,3-dihydro-1H-benzo[e][1,4]diazepin-3-yl]-3-m-tolyl-urea] | 0.054 µM
